Results: patent publication US20260167608A1, “CRYSTALLINE FORMS OF 4-(7-HYDROXY-2-ISOPROPYL-4-OXO-4H-QUINAZOLIN-3-YL)-BENZONITRILE AND FORMULATIONS THEREOF” (Bausch + Lomb Ireland Limited, priority 2019, published 2026)
Converted amounts (≈) assume the structure as drawn.

Key:
[1] = Hygroscopicity (water uptake) of crystal form E; format: physicochemical
Description: The maximum water uptake is less than 0.1% at 25° C. up to 92% relative humidity.

[2] = Solubility of crystal form E at 25° C., analysis by HPLC; format: physicochemical; conditions: thermodynamic from solid
Description: Solubility of crystal form E was measured at 25° C.

[3] = Intrinsic dissolution rate at 37° C.; format: physicochemical
[4] = Equilibration with solvent at 25° C., solid investigated by XRPD; format: physicochemical; design: key to XRPD change after equilibration: “−”: no change detected; “+”: change detected; “//”: not carried out because substance too soluble in the solvent
Description: Equilibration with Solvent at 25° C.
For equilibration at 25° C., about 50 mg of compound I was equilibrated with 1 ml solvent for 24 h in a water bath at 25° C.±0.1. The solutions were filtered and dried for 10 minutes in the air. The solid part was investigated by XRPD (X-ray powder diffraction). If differences were observed additional investigations were performed as appropriate (e.g. DSC, TG, IR, SEM).
The X-ray powder diffraction (XRPD) patterns described herein were recorded on a Bruker D8 Advance diffractometer using CuKα radiation. The XRPD pattern was recorded between 2° and 40° (2-theta).

[5] = Conversion of crystal form C in 1:1 mixtures with other crystal forms in solvent; format: physicochemical
[6] = Exploratory formulation stability at room temperature and 40° C. (UPLC assay); format: physicochemical; conditions: part of compound I in solution in the supernatant; after 12 weeks at 40° C.
Description: Based on the limited solubility of compound I in various solvents and in water, a suspension formulation was explored for development. The following five formulations were prepared and tested for stability. Formulations were stored in crimp-sealed glass vials at room temperature and at 40° C. At 6, 8 and 12 weeks, samples were evaluated for compound I stability.
The formulations prepared in Table 13 were assayed using an exploratory UPLC method developed for the assay of compound I as shown in Table 14.
Results from the testing for compound I stability at room temperature and 40° C. are shown in FIG. 14A and FIG. 14B, respectively. […] In contrast, the part of compound I in solution in the supernatant degrades to about 20% of initial amount after 12 weeks at 40° C.

[7] = Pharmacokinetic study of exploratory formulations, single bilateral topical ocular dosing; format: in vivo, rabbit; conditions: male NZW rabbits
Description: A pharmacokinetics study was conducted to determine the ocular uptake of compound I following single bilateral topical ocular dosing of male NZW rabbits with the same four exploratory formulations provided in Table 13: FID 12152, FID 121511, FID 121512, FID 121513.

[8] = equilibration at 25° C., solvent t-butylmethylether

CC(C)c1nc2cc(O)ccc2c(=O)n1-c1ccc(C#N)cc1 [Crystal form E, 4-(7-Hydroxy-2-isopropyl-4-oxo-4H-quinazolin-3-yl)-benzonitrile]
hygroscopicity [1]: non-hygroscopic | maximum water uptake ([1]; at 25° C. up to 92% relative humidity): less than 0.1% | solubility ([2]; acetate buffer pH 4.5, 25 °C, aqueous buffer, Buffer pH 4.5 (acetate)): 10 µg/mL (≈ 32.8 µM) | solubility ([2]; buffer pH 1 (0.1 N HCl), 25 °C, pH 1, simulated gastric fluid): 345 µg/mL (≈ 1130 µM) | solubility ([2]; phosphate buffer pH 6.88, 25 °C, aqueous buffer, Buffer pH 6.88 (phosphate)): 11 µg/mL (≈ 36 µM) | Intrinsic dissolution rate (IDR) at 37° C. ([3]; HCl 0.1 N): 0.0194 mg min^−1 cm^−2 | Intrinsic dissolution rate (IDR) at 37° C. ([3]; pH 3): 0.0025 mg min^−1 cm^−2 | Comments ([4]; equilibration at 25° C., solvent Acetone): too soluble | XRPD change after equilibration ([4]; equilibration at 25° C., solvent Cyclohexane): − | XRPD change after equilibration ([4]; equilibration at 25° C., solvent Ethanol abs.): − | XRPD change after equilibration ([4]; equilibration at 25° C., solvent Ethyl acetate): − | XRPD change after equilibration ([4]; equilibration at 25° C., solvent Water): − | Comments [4, 8]: amorphous | XRPD change after equilibration [4, 8]: + | Comments ([4]; form E mixed with form B, equilibration at 25 degree C., solvent Ethanol abs.): converts into crystal form B

CC(C)c1nc2cc(O)ccc2c(=O)n1-c1ccc(C#N)cc1 [Crystal form C, 4-(7-Hydroxy-2-isopropyl-4-oxo-4H-quinazolin-3-yl)-benzonitrile]
conversion of crystal form ([5]; 1:1 mixture with crystal form A, in methanol): converted in methanol to Solvate SB (crystal form G) | conversion of crystal form ([5]; 1:1 mixture with crystal form B, in isopropanol): converted in isopropanol to crystal form B

CC(C)c1nc2cc(O)ccc2c(=O)n1-c1ccc(C#N)cc1 [compound I, 4-(7-hydroxy-2-isopropyl-4-oxo-4H-quinazolin-3-yl)-benzonitrile]
compound I remaining, of initial amount [6]: about 20% | exposure in the cornea, times the levels in plasma [7]: approximately 500 times | exposure in the cornea, times the levels in the aqueous humor and iris-ciliary body [7]: approximately 10 times
